From patent US10414811B2, “Protease-resistant lipidated GLP-1 analogs” (MEDIMMUNE LIMITED, priority 2015, dated 2019)
Read-outs that look alike come from different tables or passages of the source. Numbered stars: 1 amine (or outer) side, 2 acyl side, 3 side chain; on linkers, the order of the positions; unused ones are H or OH. Square brackets hold non-standard residues; d marks the D form. Side chains are listed from the residue outwards. Peptide text beside a SMILES is read from it. * marks the point of attachment. γGlu = O=C(O)[C@H](CCC(=O)[*:2])N[*:1]; Palmitoyl = CCCCCCCCCCCCCCCC(=O)*; αMeF = C[C@](N)(Cc1ccccc1)C(=O)O; αMeK = C[C@](N)(CCCCN)C(=O)O; Lauroyl = CCCCCCCCCCCC(=O)*; αMeS = C[C@](N)(CO)C(=O)O; AEEA = NCCOCCOCC(=O)O; Aib = CC(C)(N)C(=O)O

Columns and labels:
Format in all cases: cell-based
[1] = target: T1, human glucose-dependent insulinotropic peptide receptor (GIPR) (Homo sapiens, UniProt P48546); test: cAMP assay, human GIPR cells
T1 construct: expressed in transfected cells
T1 sequence (P48546 22-466): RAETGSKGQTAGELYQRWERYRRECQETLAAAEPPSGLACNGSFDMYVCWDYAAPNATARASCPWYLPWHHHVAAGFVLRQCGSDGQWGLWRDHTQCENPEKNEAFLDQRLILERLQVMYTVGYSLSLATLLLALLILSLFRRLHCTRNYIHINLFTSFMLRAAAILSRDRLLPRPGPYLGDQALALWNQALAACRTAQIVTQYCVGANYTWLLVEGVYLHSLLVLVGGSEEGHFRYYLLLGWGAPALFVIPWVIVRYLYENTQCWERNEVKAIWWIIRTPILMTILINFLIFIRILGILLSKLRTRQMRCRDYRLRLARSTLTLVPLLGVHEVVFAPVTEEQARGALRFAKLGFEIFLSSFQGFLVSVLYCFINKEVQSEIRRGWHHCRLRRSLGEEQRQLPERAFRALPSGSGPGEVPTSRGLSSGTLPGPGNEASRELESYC
Outline: (§1)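 Peptide-stimulated cAMP measured by two-step HTRF after a 30 min room-temperature incubation with receptor-expressing cells (hGLP-1R, hGIPR at 1×10^5 cells/ml; hGCGR at 2×10^5 cells/ml). Duplicate dilutions; EC50 from 4-parameter logistic fit of % Delta F.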

[2] = target: T2, human GLP-1 receptor (GLP-1R) (Homo sapiens, UniProt P43220); test: cAMP assay, human GLP-1R cells
T2 construct: expressed in transfected cells
Outline: as §1

[3] = target: T3, human glucagon receptor (GCGR) (Homo sapiens, UniProt P47871); test: cAMP assay, human GCGR cells
T3 construct: expressed in transfected cells
Outline: as §1

[4] = tris-lipidated peptides, mean of n1 and n2, read-out: Primary assay EC50 Mean pM GLP-1R
[5] = tris-lipidated peptides, replicate n1, read-out: Primary assay EC50 GLP-1R n1
[6] = tris-lipidated peptides, replicate n2, read-out: Primary assay EC50 GLP-1R n2
[7] = tris-lipidated peptides, first replicate, read-out: Primary assay EC50 Gluc-R (n1)
[8] = cAMP assay, first determination (n1), read-out: Primary assay EC50 GIP-R (n1)
[9] = cAMP assay, second determination (n2), read-out: Primary assay EC50 GIP-R (n2)
[10] = cAMP assay, first determination (n1), read-out: Primary assay EC50 GLP-1R n1
[11] = cAMP assay, second determination (n2), read-out: Primary assay EC50 GLP-1R n2
[12] = mean of n1 and n2, read-out: Mean pM GLP-1R
[13] = cAMP assay, first determination (n1), read-out: Primary assay EC50 Gluc-R (n1)
[14] = cAMP assay, second determination (n2), read-out: Primary assay EC50 Gluc-R (n2)

T3 sequence (P47871 26-477): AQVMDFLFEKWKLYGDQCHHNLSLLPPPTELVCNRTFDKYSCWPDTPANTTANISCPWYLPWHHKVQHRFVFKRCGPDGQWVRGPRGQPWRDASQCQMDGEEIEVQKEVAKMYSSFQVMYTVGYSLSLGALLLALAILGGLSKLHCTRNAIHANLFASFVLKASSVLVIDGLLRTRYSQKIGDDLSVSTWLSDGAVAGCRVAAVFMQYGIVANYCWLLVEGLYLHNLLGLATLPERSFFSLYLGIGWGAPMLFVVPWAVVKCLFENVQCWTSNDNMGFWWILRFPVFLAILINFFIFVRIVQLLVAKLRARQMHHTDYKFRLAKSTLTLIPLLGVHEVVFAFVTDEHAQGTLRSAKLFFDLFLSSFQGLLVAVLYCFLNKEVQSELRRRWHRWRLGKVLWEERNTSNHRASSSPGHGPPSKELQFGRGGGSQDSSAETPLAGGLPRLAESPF
T2 sequence (P43220 24-463): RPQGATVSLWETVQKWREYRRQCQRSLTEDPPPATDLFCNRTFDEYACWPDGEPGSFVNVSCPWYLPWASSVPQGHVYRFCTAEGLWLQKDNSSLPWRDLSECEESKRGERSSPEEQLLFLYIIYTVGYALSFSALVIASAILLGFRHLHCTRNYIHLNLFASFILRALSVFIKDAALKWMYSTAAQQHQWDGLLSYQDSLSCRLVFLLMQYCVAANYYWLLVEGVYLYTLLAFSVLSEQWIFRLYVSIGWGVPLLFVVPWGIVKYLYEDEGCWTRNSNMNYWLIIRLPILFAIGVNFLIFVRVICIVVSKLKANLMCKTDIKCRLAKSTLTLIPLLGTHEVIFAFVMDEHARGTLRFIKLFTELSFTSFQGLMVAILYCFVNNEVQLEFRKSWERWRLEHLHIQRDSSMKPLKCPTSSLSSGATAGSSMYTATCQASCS

EC50 ([1]; tris-lipidated peptides, first replicate, read-out: Primary assay EC50 GIP-R (n1)) [nM] | EC50 [2, 4] [pM] | EC50 [2, 5] [pM] | EC50 [2, 6] [pM] | EC50 [3, 7] [nM] | EC50 [1, 8] [nM] | EC50 [1, 9] [nM] | EC50 [2, 10] [pM] | EC50 [2, 11] [pM] | EC50 [2, 12] [pM] | EC50 [3, 13] [nM] | EC50 [3, 14] [nM] | EC50 ([1]; tris-lipidated peptides, second replicate, read-out: Primary assay EC50 GIP-R (n2)) [nM] | Structure (SMILES)
19.7 | 246 | 216 | 276 | 19.7 |  |  |  |  |  |  |  |  | CCCCCCCCCCCC(=O)N[C@@H](CCC(=O)NCCOCCOCC(=O)NCCOCCOCC(=O)NCCCC[C@H](NC(=O)[C@H](CCC(=O)O)NC(=O)CNC(=O)[C@H](CCC(=O)O)NC(=O)[C@H](CC(C)C)NC(=O)[C@H](CCCCNC(=O)COCCOCCNC(=O)COCCOCCNC(=O)CC[C@H](NC(=O)CCCCCCCCCCC)C(=O)O)NC(=O)[C@H](CO)NC(=O)[C@](C)(CO)NC(=O)[C@@H](NC(=O)[C@H](CC(=O)O)NC(=O)[C@H](CO)NC(=O)[C@@H](NC(=O)[C@](C)(Cc1ccccc1)NC(=O)[C@H](CO)NC(=O)CNC(=O)[C@H](CCC(=O)O)NC(=O)C(C)(C)NC(=O)[C@@H](N)Cc1c[nH]cn1)[C@@H](C)O)C(C)C)C(=O)N[C@@H](C)C(=O)N[C@@](C)(CCCCN)C(=O)N[C@@H](CCC(=O)O)C(=O)N[C@@H](Cc1ccccc1)C(=O)N[C@H](C(=O)N[C@@H](CCCCNC(=O)COCCOCCNC(=O)COCCOCCNC(=O)CC[C@H](NC(=O)CCCCCCCCCCC)C(=O)O)C(=O)N[C@@H](Cc1ccccc1)C(=O)N[C@H](C(=O)N[C@H](C(=O)N[C@@H](CCC(=O)O)C(=O)NCC(=O)NCC(N)=O)C(C)C)C(C)C)[C@@H](C)CC)C(=O)O [compound 449] (H-H[Aib]EGS[αMeF]TSDV[αMeS]SK([AEEA-AEEA-γGlu-Lauroyl])LEGEK([AEEA-AEEA-γGlu-Lauroyl])A[αMeK]EFIK([AEEA-AEEA-γGlu-Lauroyl])FVVEGG-NH2; N-terminus assumed)
 |  |  |  |  | ≥ 27 | ≥ 27 | 33 | 33 | 33 | ≥ 27 | ≥ 27 |  | CCCCCCCCCCCCCCCC(=O)N[C@@H](CCC(=O)NCCCC[C@H](NC(=O)CNC(=O)CNC(=O)[C@H](CCCCN)NC(=O)[C@@H](NC(=O)[C@@H](NC(=O)[C@](C)(Cc1ccccc1)NC(=O)[C@H](C)NC(=O)[C@@H](NC(=O)[C@](C)(Cc1ccccc1)NC(=O)[C@H](CCC(=O)O)NC(=O)[C@H](CCCCN)NC(=O)[C@H](C)NC(=O)[C@H](C)NC(=O)[C@H](CCC(=O)O)NC(=O)CNC(=O)[C@H](CCC(=O)O)NC(=O)[C@H](CC(C)C)NC(=O)[C@](C)(Cc1ccccc1)NC(=O)[C@H](CO)NC(=O)[C@H](CO)NC(=O)[C@@H](NC(=O)[C@H](CC(=O)O)NC(=O)[C@H](CO)NC(=O)[C@@H](NC(=O)[C@](C)(Cc1ccccc1)NC(=O)[C@H](CO)NC(=O)CNC(=O)[C@H](CCC(=O)O)NC(=O)C(C)(C)NC(=O)[C@@H](N)Cc1c[nH]cn1)[C@@H](C)O)C(C)C)[C@@H](C)CC)C(C)C)C(C)C)C(N)=O)C(=O)O [compound 39] (H-H[Aib]EGS[αMeF]TSDVSS[αMeF]LEGEAAKE[αMeF]IA[αMeF]VVKGGK([γGlu-Palmitoyl])-NH2; N-terminus assumed)
 | 186 | 132 | 239 | 19.8 |  |  |  |  |  |  |  | 19.8 | CCCCCCCCCCCC(=O)N[C@@H](CCC(=O)NCCOCCOCC(=O)NCCOCCOCC(=O)NCCCC[C@H](NC(=O)[C@H](CCC(=O)O)NC(=O)[C@H](CC(C)C)NC(=O)[C@H](CCCCNC(=O)COCCOCCNC(=O)COCCOCCNC(=O)CC[C@H](NC(=O)CCCCCCCCCCC)C(=O)O)NC(=O)[C@H](CO)NC(=O)[C@](C)(CO)NC(=O)[C@@H](NC(=O)[C@H](CC(=O)O)NC(=O)[C@H](CO)NC(=O)[C@@H](NC(=O)[C@](C)(Cc1ccccc1)NC(=O)[C@H](CO)NC(=O)CNC(=O)[C@H](CCC(=O)O)NC(=O)C(C)(C)NC(=O)[C@@H](N)Cc1c[nH]cn1)[C@@H](C)O)C(C)C)C(=O)N[C@@H](CCC(=O)O)C(=O)N[C@@H](C)C(=O)N[C@@H](C)C(=O)N[C@@](C)(CCCCN)C(=O)N[C@@H](CCC(=O)O)C(=O)N[C@@H](Cc1ccccc1)C(=O)N[C@H](C(=O)N[C@@H](C)C(=O)N[C@@H](Cc1ccccc1)C(=O)N[C@@H](CCCCNC(=O)COCCOCCNC(=O)COCCOCCNC(=O)CC[C@H](NC(=O)CCCCCCCCCCC)C(=O)O)C(=O)N[C@H](C(=O)N[C@@H](CCC(=O)O)C(=O)NCC(=O)NCC(N)=O)C(C)C)[C@@H](C)CC)C(=O)O [compound 479] (H-H[Aib]EGS[αMeF]TSDV[αMeS]SK([AEEA-AEEA-γGlu-Lauroyl])LEK([AEEA-AEEA-γGlu-Lauroyl])EAA[αMeK]EFIAFK([AEEA-AEEA-γGlu-Lauroyl])VEGG-NH2)
 |  |  |  |  | ≥ 27 | ≥ 27 | 370 | 200 | 283 | ≥ 27 | ≥ 27 |  | CCCCCCCCCCCCCCCC(=O)N[C@@H](CCC(=O)NCCCC[C@H](NC(=O)[C@H](C)NC(=O)[C@H](CCC(=O)O)NC(=O)CNC(=O)[C@H](CCC(=O)O)NC(=O)[C@H](CC(C)C)NC(=O)[C@](C)(Cc1ccccc1)NC(=O)[C@H](CO)NC(=O)[C@](C)(CO)NC(=O)[C@@H](NC(=O)[C@H](CC(=O)O)NC(=O)[C@H](CO)NC(=O)[C@@H](NC(=O)[C@](C)(Cc1ccccc1)NC(=O)[C@H](CO)NC(=O)CNC(=O)[C@H](CCC(=O)O)NC(=O)C(C)(C)NC(=O)[C@@H](N)Cc1c[nH]cn1)[C@@H](C)O)C(C)C)C(=O)N[C@@](C)(CCCCN)C(=O)N[C@@H](CCC(=O)O)C(=O)N[C@@](C)(Cc1ccccc1)C(=O)N[C@H](C(=O)N[C@@H](C)C(=O)N[C@@](C)(Cc1ccccc1)C(=O)N[C@H](C(=O)N[C@H](C(=O)N[C@@](C)(CCCCN)C(=O)NCC(=O)NCC(N)=O)C(C)C)C(C)C)[C@@H](C)CC)C(=O)O [compound 81] (H-H[Aib]EGS[αMeF]TSDV[αMeS]S[αMeF]LEGEAK([γGlu-Palmitoyl])[αMeK]E[αMeF]IA[αMeF]VV[αMeK]GG-NH2; N-terminus assumed)
 |  |  |  |  | ≥ 26 | ≥ 26 | 16 | 13 | 14.4 | ≥ 26 | ≥ 26 |  | CCCCCCCCCCCC(=O)N[C@@H](CCC(=O)N[C@@H](CCC(=O)N[C@@H](CCC(=O)NCCCC[C@H](NC(=O)[C@H](C)NC(=O)[C@H](C)NC(=O)[C@H](CCC(=O)O)NC(=O)CNC(=O)[C@H](CCC(=O)O)NC(=O)[C@H](CC(C)C)NC(=O)[C@](C)(Cc1ccccc1)NC(=O)[C@H](CO)NC(=O)[C@](C)(CO)NC(=O)[C@@H](NC(=O)[C@H](CC(=O)O)NC(=O)[C@H](CO)NC(=O)[C@@H](NC(=O)[C@](C)(Cc1ccccc1)NC(=O)[C@H](CO)NC(=O)CNC(=O)[C@H](CCC(=O)O)NC(=O)C(C)(C)NC(=O)[C@@H](N)Cc1c[nH]cn1)[C@@H](C)O)C(C)C)C(=O)N[C@@H](CCC(=O)O)C(=O)N[C@@](C)(Cc1ccccc1)C(=O)N[C@H](C(=O)N[C@@H](C)C(=O)N[C@@](C)(Cc1ccccc1)C(=O)N[C@H](C(=O)N[C@H](C(=O)N[C@@](C)(CCCCN)C(=O)NCC(=O)NCC(N)=O)C(C)C)C(C)C)[C@@H](C)CC)C(=O)O)C(=O)O)C(=O)O [compound 130]
 |  |  |  |  | 15 | 19 | 3100 | 1800 | 2440 | 3 | 1.1 |  | CSCC[C@H](NC(=O)[C@H](CC(C)C)NC(=O)[C@](C)(Cc1ccccc1)NC(=O)[C@H](CCC(N)=O)NC(=O)[C@@H](NC(=O)[C@](C)(Cc1ccccc1)NC(=O)[C@H](CC(=O)O)NC(=O)[C@H](CCC(N)=O)NC(=O)[C@H](C)NC(=O)[C@H](CCCNC(=N)N)NC(=O)[C@H](CCCNC(=N)N)NC(=O)[C@H](CO)NC(=O)[C@H](CC(=O)O)NC(=O)[C@H](CC(C)C)NC(=O)[C@](C)(Cc1ccccc1)NC(=O)[C@H](CCCCN)NC(=O)[C@H](CO)NC(=O)[C@](C)(Cc1ccccc1)NC(=O)[C@H](CC(=O)O)NC(=O)[C@H](CO)NC(=O)[C@@H](NC(=O)[C@](C)(Cc1ccccc1)NC(=O)[C@H](CO)NC(=O)CNC(=O)[C@H](CCC(N)=O)NC(=O)C(C)(C)NC(=O)[C@@H](N)Cc1c[nH]cn1)[C@@H](C)O)C(C)C)C(=O)N[C@@H](CC(N)=O)C(=O)N[C@H](C(N)=O)[C@@H](C)O [compound 14] (H-H[Aib]QGS[αMeF]TSD[αMeF]SK[αMeF]LDSRRAQD[αMeF]VQ[αMeF]LMNT-NH2)
